Consider three molecules from patent US6331528A, “Method for treatment in gene therapy and use of guanine derivative therefor” (priority 2000, dated 2001).

The structures appear in SMILES notation. ≈ marks a conversion by molar mass, not a printed value.

In one series the test system is RERF-LC-MA/LZRNL cell. The experiment in a line: Cellular toxicity in control cell with no insertion of HSV-1 thymidine kinase gene (MTT). Format: cell-based. The note with it: Homo sapiens, 96 h, control RERF-LC-MA/LZRNL cell without HSV-1 thymidine kinase gene, 4 days. On the procedure:
(§1) The cellular toxicities of the quanine derivative for use in accordance with the invention (the compound in the free form represented by the structural formula 1), ganciclovir and aciclovir (Comparative Example 1 and 1') against HSV-1 thymidine kinase gene-introduced cells were tested.
(§2) Human lung small cell carcinoma-derived RERF-LC-MA cell was infected with a viral vector prepared by inserting the thymidine kinase gene in a vector derived from Molony mouse leukemia virus. The resulting RERF-LC-MA/LTRNL cell was used. Furthermore, RERF-LC-MA/LZRNL cell with no insertion of any HSV-1 thymidine kinase gene was used as a control cell. The method for preparing these cells and the assay of the cellular toxicities were according to the method reported by Hasegawa et al. [see Hasegawa Y. et al., Am. J. Respir. Cell Mol. Biol. 8 (6) (1993) p. 655-661]. Based on the assay method of cellular toxicity, the cellular toxicities were confirmed by a calorimetric assay method using MTT [3-(4,5-dimethylthiazol-2-yl)-2,5-diphenyl-tetrazolium bromide].
The RERF-LC-MA/LTPNL cell suspension was diluted with a culture medium (E-MEM, 10% FBS) and inoculated at 2×10^3 cells/well in a 96-well plate. Then, the pharmaceutical component (guanine derivative) for use in accordance with the invention, ganciclovir and aciclovir were added at various concentrations to these wells. Subsequently, the cellular toxicities were assayed and confirmed by a calorimetric assay […] and using MTT on day 4.

For series [1] the following is noted: background statement; cited from earlier work.
The test system of series [2] is mouse granulocyte macrophage precursor cell (CFU-GM). The experiment in a line: Effect on the inhibition of the growth of mouse granulocyte macrophage precursor cell (CFU-GM). Format: cell-based, mouse C57BL/6N Crj. To be noted: for IC50: CFU-GM, 168 h, mouse femur bone marrow cells, 4×10^4 cells/ml, mouse interleukin-3, 7 days, 37° C., read-out: IC50 (inhibition of CFU-GM colony formation). The procedure:
The effects of the guanine derivative for use in accordance with the invention (the free form of the compound represented by the structural formula 1), ganciclovir and aciclovir (Comparative Examples 2 and 2') on the inhibition of the growth of mouse granulocyte macrophage precursor cell (CFU-GM) were tested. The mouse granulocyte macrophage precursor cell of Okano et al. [see Okano A. et al., Transplantation 48 (1989) p. 495-498]. The effects on the inhibition of the growth of CFU-GM were assayed as follows. From the femur bone marrow of mouse C57BL/6N Crj females of age 10 weeks was prepared bone marrow cell, which was then inoculated at a concentration of 4×10^4 cells/ml in a semi-solid culture medium with addition of various concentrations of the guanine derivative, ganciclovir and aciclovir (Iscove's modified Dulbecco's medium, 0.8% carboxymethyl cellulose, 20% FBS, 200 units/ml mouse interleukin-3). The cell was cultured in 37° C. in 5% CO2 in a wet atmosphere on a 35-mm plate for 7 days. The emerging CFU-GM colonies were counted with a differential microscope.

The test system of another series is RERF-LC-MA/LTRNL cell. In words: Cellular toxicity in HSV-1 thymidine kinase gene-introduced cell (MTT). The format is cell-based, Human. The note with it: versus ganciclovir and aciclovir. The procedure: as §1, §2
The RERF-LC-MA/LTPNL cell suspension was diluted with a culture medium (E-MEM, 10% FBS) and inoculated at 2×10^3 cells/well in a 96-well plate. Then, the pharmaceutical component (guanine derivative) for use in accordance with the invention, ganciclovir and aciclovir were added at various concentrations to these wells. […]

What is called IC50 is the concentration that inhibits the measured activity by half. `Nc1nc2c(ncn2COCCO)c(=O)[nH]1` [aciclovir]: the values for the IC50 (in the series with RERF-LC-MA/LZRNL cell; in series [2]) were no less than 250 µg/mL and 26 µg/mL (≈ 115 µM), respectively. The therapeutic effect result in series [1] is listed as “extremely poor therapeutic effect”.
With `Nc1nc(O)c2ncn(COC(CO)CO)c2n1` [ganciclovir], the IC50 is no less than 201 µg/mL in the series on RERF-LC-MA/LZRNL cell and 18 µg/mL (≈ 70.5 µM) in series [2].
As for `Nc1nc2c(ncn2C[C@]2(CO)C[C@H]2CO)c(=O)[nH]1` [guanine derivative, (-)-9-[1'S,2'R-bis(hydroxymethyl)cyclopropan-1'-yl]methylguanine], the IC50 is no less than 135 µg/mL in the series with RERF-LC-MA/LZRNL cell and no less than 66 µg/mL in series [2]. Also, in series [2] (inferred from CFU-GM colony IC50), the “bone marrow toxicity compared with ganciclovir and aciclovir” value was “possibly weaker than those of ganciclovir and aciclovir”. For the same molecule, the “cellular toxicity effect compared with the conventional products” value in the series with RERF-LC-MA/LTRNL cell was “more excellent cellular toxicity effect, compared with the conventional products”.
